Source: publication PMC8158513, “Bio-Distribution and Pharmacokinetics of Topically Administered γ-Cyclodextrin Based Eye Drops in Rabbits” (Pharmaceuticals, 2021)

How the values were obtained:
[1] = Single-dose ocular bio-distribution and pharmacokinetics of topical γCD based eye drops (LC-MS/MS of ocular tissues); conditions: for Cmax / Tmax: topical or ocular
Protocol: (§1) A total number of 59 rabbits were included in this part of the study. All rabbits were consecutively assigned to one of the two study groups. […] Group 2 animals were dosed with 0.15% candesartan eye drops, while 23 rabbits received a single dose and 5 rabbits received multiple doses of the eye drops. Single dose rabbits of both groups were additionally randomized to one of five euthanasia time points: 0.5 h ± 5 min, 1.5 h ± 5 min, 3 h ± 10 min, 6 h ± 15 min or 12 h ± 30 min after instillation. In all animals, 35 μL of the study drug were instilled in the conjunctival sac of the right eye with a calibrated pipette using single-use dispensers. Single dose animals were instilled only once while multiple dose animals were instilled twice daily for a total of 5 days. In all animals only the right eye was treated. To assess drug concentrations, eyes were enucleated at the end of the study period. Before enucleation, rabbits were euthanized in deep anesthesia (ketamine 60 mg/kg, xylazine 16 mg/kg, s.c.) by an intravenous over-dose of pentobarbitone sodium (300 mg/kg i.v.) and enucleation was performed immediately after euthanasia. Single dose animals were enucleated at one of the five specified time-points. Multiple dose animals were euthanized 1 h ± 30 min after the last drug administration. From each animal both eyes were enucleated and stored at −80 °C. For separation of the different ocular tissues, the eyeball was removed from −80 °C storage and corneal tissue, aqueous humor, vitreous humor and retinal/choroidal tissue were dissected. The tissues were collected separately in individual tubes, which were weighed and then stored at −80 °C.
(§2) Both, the eye-tissue and plasma samples were shipped to Nucro-Technics (Nucro-Technics, 2000 Ellesmere Road, Unit #16, Scarborough, ON, Canada) for quantitative analysis. For this purpose, a new liquid chromatography/tandem mass spectrometry method for simultaneous quantification of candesartan and irbesartan in rabbit eye tissues including cornea, aqueous humor, vitreous body and retina was developed. The exact method and validation are described in detail elsewhere.
(§3) This study was designed to assess pharmacokinetics and local tolerability, no formal sample size calculation has been performed. Descriptive statistics was used for all quantitative data to describe drug concentrations after the single and multiple dosing in the different tissues. […] For pharmacokinetic calculations Phoenix WinNonlin 8.1 (Certara, Princeton, NJ, USA) was used, and the statistical analysis was done using CSS Statistica 6.0 (Tulsa, OK, USA).
(§4) To facilitate calculation of the PK parameters, a plausibility check was performed and values below the lower limit of quantification (BLOQ; plasma: <0.05 ng/mL; tissue: <5 ng/g (irbesartan), <2 ng/g (candesartan)) were set to 0. […] All baseline plasma sample values were set to zero.

[2] = Multiple-dose ocular bio-distribution (twice daily for 5 days, tissues 1 h after last dose); conditions: New Zealand White, rabbit, topical, 35 µL
Protocol: as §1, with “Single dose animals were enucleated at one of the five specified time-points. Multiple dose animals were euthanized 1 h ± 30 min after the last drug administration. From each animal both eyes were enucleated and stored at −80 °C. For separation of the different ocular tissues, the eyeball was removed from −80 °C storage and corneal tissue, aqueous humor, vitreous humor and retinal/choroidal tissue were dissected. The tissues were collected separately in individual tubes, which were weighed and then stored at −80 °C.” left out
Both, the eye-tissue and plasma samples were shipped to Nucro-Technics (Nucro-Technics, 2000 Ellesmere Road, Unit #16, Scarborough, ON, Canada) for quantitative analysis. For this purpose, a new liquid chromatography/tandem mass spectrometry method for simultaneous quantification of candesartan and irbesartan in rabbit eye tissues including cornea, aqueous humor, vitreous body and retina was developed. […]
This study was designed to assess pharmacokinetics and local tolerability, no formal sample size calculation has been performed. Descriptive statistics was used for all quantitative data to describe drug concentrations after the single and multiple dosing in the different tissues. […]
To facilitate calculation of the PK parameters, a plausibility check was performed and values below the lower limit of quantification (BLOQ; plasma: <0.05 ng/mL; tissue: <5 ng/g (irbesartan), <2 ng/g (candesartan)) were set to 0. […]

[3] = Blood-plasma PK after topical eye drop administration; conditions: for concentration at 6 h: Plasma concentration at 6 h
Protocol: as §1
A venous blood sample of 2 mL was collected from the saphenous vein before the (first) drug administration and prior to euthanasia to determine systemic drug exposure at baseline and after drug administration. The blood was centrifuged for 10 min at a temperature of 10 °C and a speed of 3000 rpm. The resulting supernatant was separated and stored in a tube at −80 °C until further processing.
as §2, §3, §4

[4] = Pre-formulation studies (γCD complexation, physicochemical parameters)
Protocol: Pre-formulation studies with different candesartan (0.1–0.2%) and irbesartan (1.0–2.0%) concentrations were performed to find the optimal drug concentration for the animal experiments.

[5] = molecular target: angiotensin II receptor (AT1 subtype); conditions: cited from earlier work
[6] = New Zealand White, rabbit, plasma, topical or ocular, 35 µL
[7] = New Zealand White, rabbit, in vivo
[8] = New Zealand White, rabbit, in vivo, topical or ocular

CCOc1nc2cccc(C(=O)O)c2n1Cc1ccc(-c2ccccc2-c2nnn[nH]2)cc1 [candesartan]
Cmax ([1]; New Zealand White, rabbit, aqueous humor, treated study eye, 35 µL, Cmax SE, aqueous humor (AH), single dose, study eye, mean ± SD, also published separately [20]): 30 ± 14 ng/g | Tmax ([1]; New Zealand White, rabbit, aqueous humor, treated study eye, 35 µL, Tmax SE, aqueous humor (AH), single dose, study eye, also published separately [20]): 180 min | Cmax ([1]; New Zealand White, rabbit, aqueous humor, untreated control eye, 35 µL, Cmax CE, aqueous humor (AH), single dose, control eye, also published separately [20]): < 2 ng/g | Cmax ([1]; New Zealand White, rabbit, corneal tissue, treated study eye, 35 µL, Cmax SE, corneal tissue (CT), single dose, study eye, mean ± SD, also published separately [20]): 3500 ± 801 ng/g | Tmax ([1]; New Zealand White, rabbit, corneal tissue, treated study eye, 35 µL, Tmax SE, corneal tissue (CT), single dose, study eye, also published separately [20]): 90 min | Cmax ([1]; New Zealand White, rabbit, corneal tissue, untreated control eye, 35 µL, Cmax CE, corneal tissue (CT), single dose, control eye, mean ± SD, also published separately [20]): 2 ± 4 ng/g | Tmax ([1]; New Zealand White, rabbit, corneal tissue, untreated control eye, 35 µL, Tmax CE, corneal tissue (CT), single dose, control eye, also published separately [20]): 30 min | Cmax ([1]; New Zealand White, rabbit, retinal tissue, 35 µL, Retinal tissue single dose Cmax in molar units, single dose, assuming molar weight 428.54 g/mol irbesartan, 440.45 g/mol candesartan): 144 nM | Cmax ([1]; New Zealand White, rabbit, retinal/choroidal tissue, treated study eye, 35 µL, Cmax SE, retinal(choroidal) tissue (RT), single dose 35 μL topical, mean ± SD): 63 ± 39 ng/g | Tmax ([1]; New Zealand White, rabbit, retinal/choroidal tissue, treated study eye, 35 µL, Tmax SE, retinal tissue (RT), single dose, study eye): ≤ 30 min | half-life ([1]; New Zealand White, rabbit, retinal/choroidal tissue, treated study eye, topical, 35 µL): 323 min | Cmax ([1]; New Zealand White, rabbit, retinal/choroidal tissue, untreated control eye, 35 µL, Cmax CE, retinal tissue (RT), single dose, mean ± SD): < 2 ng/g | Tmax ([1]; New Zealand White, rabbit, retinal/choroidal tissue, untreated control eye, 35 µL, Tmax CE, retinal tissue (RT), single dose, control eye): 30 min | Cmax ([1]; New Zealand White, rabbit, vitreous humor, treated study eye, 35 µL, Cmax SE, vitreous humor (VH), single dose, study eye, mean ± SD): < 2 ng/g | Tmax ([1]; New Zealand White, rabbit, vitreous humor, treated study eye, 35 µL, Tmax SE, vitreous humor (VH), single dose, study eye): 30 min | Cmax ([1]; New Zealand White, rabbit, vitreous humor, untreated control eye, 35 µL, Cmax CE, vitreous humor (VH), single dose, control eye): < 2 ng/g | Cmax CE, vitreous humor (VH) ([1]; single dose, control eye): below the respective lower quantification limit | Time of maximum retinal drug concentration after single administration ([1]; single dose, retina): 30 min | Retinal tissue AUC ([1]; single dose, study eye, AUC 0 h-12 h): 210 ng·h/g | Cmax SE, vitreous humor (VH) ([1]; single dose, study eye, mean ± SD): <2 ng/g | concentration at 1 h after last dose ([2]; retinal tissue, Retinal tissue Cmean in molar units, multiple dose, assuming molar weight 428.54 g/mol irbesartan, 440.45 g/mol candesartan): 82 nM | concentration at 1 h after last dose ([2]; retinal/choroidal tissue, treated study eye, Cmean retinal tissue (RT), SE, multiple doses twice daily 5 days, 1 h ± 30 min after last dose, study eye, mean ± SD): 36 ± 10 ng/g | concentration at 1 h after last dose ([2]; vitreous humor, treated study eye, Cmean vitreous humor (VH), SE, multiple doses, 1 h after last dose, study eye): < 2 ng/g | Cmax [3, 6]: 4.32 ± 1.04 ng/mL | Tmax [3, 6]: 30 min | half-life [3, 6]: 584 min | concentration at 1 h after last dose ([3]; New Zealand White, rabbit, plasma, topical, 35 µL, Mean plasma levels (Cmean) after the last dose, multiple doses twice daily for 5 days): 4.78 ± 1.48 ng/mL | Plasma AUC ([3]; single topical administration, AUC 0 h-12 h): 8.75 (ng/mL)*h | Complexing efficiency of the γCD complex ([4]; compared with irbesartan): lower | IC50 [5]: 0.4 nM

CCCCC1=NC2(CCCC2)C(=O)N1Cc1ccc(-c2ccccc2-c2nnn[nH]2)cc1 [irbesartan]
Retinal tissue AUC [1, 7]: 941 ng·h/g | Retinal tissue AUC relative to the corresponding candesartan AUC [1, 7]: around 4.5 times | Time of maximum retinal drug concentration after single administration [1, 7]: 30 min | concentration at 0.5 h [1, 7]: 14 ± 16 ng/g | half-life [1, 7]: 199 min | Cmax ([1]; New Zealand White, rabbit, in vivo, Cmax CE, aqueous humor (AH)): < 5 ng/g | Cmax ([1]; New Zealand White, rabbit, in vivo, Cmax CE, corneal tissue (CT)): 49 ± 85 ng/g | Cmax ([1]; New Zealand White, rabbit, in vivo, Cmax CE, retinal tissue (RT)): 23 ± 34 ng/g | Cmax ([1]; New Zealand White, rabbit, in vivo, Cmax CE, vitreous humor (VH)): < 5 ng/g | Cmax ([1]; New Zealand White, rabbit, in vivo, Cmax SE, aqueous humor (AH)): 121 ± 69 ng/g | Cmax ([1]; New Zealand White, rabbit, in vivo, Cmax SE, corneal tissue (CT)): 3660 ± 988 ng/g | Cmax ([1]; New Zealand White, rabbit, in vivo, Cmax SE, retinal(choroidal) tissue (RT)): 251 ± 142 ng/g | Cmax ([1]; New Zealand White, rabbit, in vivo, Cmax SE, vitreous humor (VH)): 14 ± 16 ng/g | Tmax ([1]; New Zealand White, rabbit, in vivo, Tmax CE, aqueous humor (AH)): 30 min | Tmax ([1]; New Zealand White, rabbit, in vivo, Tmax CE, corneal tissue (CT)): 90 min | Tmax ([1]; New Zealand White, rabbit, in vivo, Tmax CE, retinal tissue (RT)): 30 min | Tmax ([1]; New Zealand White, rabbit, in vivo, Tmax CE, vitreous humor (VH)): 30 min | Tmax ([1]; New Zealand White, rabbit, in vivo, Tmax SE, aqueous humor (AH)): 180 min | Tmax ([1]; New Zealand White, rabbit, in vivo, Tmax SE, corneal tissue (CT)): 90 min | Tmax ([1]; New Zealand White, rabbit, in vivo, Tmax SE, retinal tissue (RT)): ≤ 30 min | Tmax ([1]; New Zealand White, rabbit, in vivo, Tmax SE, vitreous humor (VH)): 30 min | Cmax CE, vitreous humor (VH) ([1]; rabbit, in vivo): below the respective lower quantification limit | concentration at 6 h ([3]; New Zealand White, rabbit, in vivo, mean of the other concentrations (outlier excluded)): 1.16 ng/mL | concentration at 6 h ([3]; New Zealand White, rabbit, in vivo, single value defined as outlier): 65.2 ng/mL | Cmax [3, 8]: 5.64 ± 4.08 ng/mL | Tmax [3, 8]: 30 min | half-life [3, 8]: 1060 min | Plasma AUC ([3]; rabbit, in vivo, topical or ocular): 17.64 (ng/mL)*h | Affinity for the γCD cavity ([4]; among telmisartan, olmesartan, irbesartan and candesartan): highest affinity | IC50 [5]: 1.3 nM
